# Entries after “also recorded” stand apart in the source; their conditions may differ.
# Assays:
# Assay type in all cases: cell-based
# [1] = tested on: LCK, PLCγ and ERK1/2 phosphorylation in Jurkat T cells; assay: TCR-LCK signaling immunoblot; settings: dose response
# Description: Supernatants from lysed cells were reduced, treated with iodoacetamide to cap thiol residues, and digested by trypsin for bottom‐up proteomics analysis. […] LCK is the direct substrate of SHP1 and ERK1/2, and PLCγ is the downstream effector protein of LCK‐mediated TCR signaling. […] Statistical analyses were performed with Graphpad Prism software 10.4.2 through the one‐way ANOVA test using Turkey post‐hoc comparison. ****p < 0.0001 was considered significant.
# To further confirm M029 cellular target engagement, we investigated the effect of M029 on T cell function. SHP1 plays a negative role in T cells, and deletion of SHP1 in T cells lowers the activation threshold and enhances antitumor immunity.^[ [30], [31], [32], [33] ^] Mechanistically, SHP1 attenuates T cell receptor (TCR) signaling via dephosphorylation of the lymphocyte‐specific protein tyrosine kinase LCK.^[ [31], [84], [85], [86] ^] T cell activation leads to increased expression and secretion of interleukin 2 (IL‐2)^[ [87] ^] while the removal of SHP1 in T cells enhances IL‐2 production, cell proliferation, and cytolysis capacity.^[ [30], [32] ^] Accordingly, we sought to assess the impact of targeting SHP1 with M029 on TCR‐LCK signaling and T cell activation. […] M029 also dose‐dependently promoted IL‐2 production (Figure 4c). […] These findings corroborate that the observed increase in LCK phosphorylation and its downstream signaling indeed resulted from SHP1 inhibition by M029.
# Immunoblotting: Cultured cells were lysed with ice-cold lysis buffer (50 mM Tris, pH 8.0, 150 mM NaCl, 10% Glycerol, 1% Triton-X-100) supplied with phosphatase inhibitor (Bimake) and protease inhibitor mixture (Roche Applied Science). Equal amounts of protein were resolved by SDS-PAGE, transferred to a nitrocellulose membrane, and subjected to immunoblotting. […]
# EO771 = assay: CCK8 cytotoxicity; settings: up to 50 µM, 24 hours
# Description: (§1) Figure S3. Cancerous cells (MC38, EO771, and B16-F10), non-cancerous cells (HEK293), and immune cells (Jurkat and Raw264.7) were treated with M029 at different doses for 24 hours, and the cell viability was determined by the CCK8 experiments using DMSO-treated cells as a control. […] Results were analyzed using GraphPad Prism 10.4.2. The figure is plotted as average ± standard error of the mean (SEM).
# (§2) Cytotoxicity: HEK293, MC38, EO771, RAW264.7 cells in DMEM media [supplemented with 10% (v/v) fetal bovine serum and penicillin (100 units/ml)/streptomycin (100 μg/ml)] and Jurkat T cells in RPMI 1640 media [supplemented with 10% (v/v) fetal bovine serum and penicillin (50 units/ml)/streptomycin (50 μg/ml)] were dispensed in clear flat-bottom 96-well plates at the density of 5,000 cells per well and culture for 16 hours under 37 °C with 5% CO2. M029 of different concentrations or DMSO was added to each well, followed by additional incubation for 24 hours. All wells were then treated with 5 µL of CCK8 reagent (Abcam, #ab228554) followed by 4 hours of incubation. OD460 of the reaction mixture was detected using a Spectra MAX340 microplate spectrophotometer (Molecular Devices) and was used to determine the percent growth inhibition of M029 on each cell line. Data were fitted using Prism GraphPad 10.1.1.
# Jurkat T cells = assay: CCK8 cytotoxicity; settings: up to 50 µM, 24 hours
# Description: as §1, §2
# B16-F10 = assay: CCK8 cytotoxicity; settings: up to 50 µM, 24 hours
# Description: as §1, §2
# MC38 = assay: CCK8 cytotoxicity; settings: up to 50 µM, 24 hours
# Description: as §1, §2
# HEK293 = assay: CCK8 cytotoxicity; settings: up to 50 µM, 24 hours
# Description: as §1, §2
# Raw264.7 cells = assay: CCK8 cytotoxicity; settings: up to 50 µM, 24 hours
# Description: as §1, §2
smiles,measurement,setting,value
"N#Cc1ccsc1NS(=O)(=O)c1ccc(NC(=O)CCl)cc1 [M029, 2-Chloro-N-(4-(N-(3-cyanothiophen-2-yl)sulfamoyl)phenyl)acetamide]","TCR-mediated phosphorylation of LCK, PLCγ and ERK1/2",[1],upregulation; also recorded: dose dependently increased
same,"cytotoxicity, EO771",EO771,No significant toxicity; also recorded: no significant cytotoxicity
same,"cytotoxicity, Jurkat T cells",Jurkat T cells,No significant toxicity; also recorded: no significant cytotoxicity
same,"cytotoxicity, B16-F10",B16-F10,No significant toxicity; also recorded: no significant cytotoxicity
same,"cytotoxicity, MC38",MC38,No significant toxicity; also recorded: no significant cytotoxicity
same,"cytotoxicity, HEK293",HEK293,No significant toxicity; also recorded: no significant cytotoxicity
same,"cytotoxicity, Raw264.7",Raw264.7 cells,No significant toxicity; also recorded: no significant cytotoxicity

# Reference: article PMC12833730, “Discovery of a First‐in‐Class Covalent Allosteric SHP1 Inhibitor with Immunotherapeutic Activity” (Angewandte Chemie (International Ed. in English), 2025)
